Our source for the TGI and GI50 values is PubChem BioAssay (NCI).

Test systems include SK-MEL-28 melanoma; A549 NSCLC; EKVX NSCLC; OVCAR-5 ovarian; RPMI-8226 leukemia; HS 578T breast; MDA-MB-435; HOP-62 NSCLC; HL-60(TB) leukemia.
Assay in all cases: growth of human tumour cells (NCI), 48 h

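Step 1: Grow cells in 96-well plates. Step 2: Expose to compound for 48 hours at 5 concentrations. Step 3: Interpolate endpoints linearly; if unreached, use highest concentration. The concentration for 50% growth inhibition is given as GI50. TGI: concentration producing complete growth inhibition.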 Where only a bound is given, the exact number is not on record here.

In the case of `COC(=O)c1c[nH]c(=O)[nH]c1=O`, the TGI in the experiment with SK-MEL-28 melanoma, with A549 NSCLC, in the experiment on EKVX NSCLC, with OVCAR-5 ovarian, in the experiment with RPMI-8226 leukemia and in the experiment with HS 578T breast was greater than 100 µM each time. This molecule also displayed a TGI with MDA-MB-435 greater than 100 µM.

On to `Cc1ccc(S(=O)(=O)N(/N=C(\N)Oc2ccc(Cl)cc2)C(=N)Oc2ccc(Cl)cc2)cc1`, for which the TGI in the experiment with SK-MEL-28 melanoma, in the experiment on HOP-62 NSCLC, in the experiment on A549 NSCLC, with EKVX NSCLC, in the experiment with OVCAR-5 ovarian and in the experiment on HL-60(TB) leukemia was greater than 100 µM in each case.

`O=C1C2c3[nH]c4ccccc4c3[C@@H]3CCCCCCCCCCC3C2C(=O)N1c1ccccc1` (stereo not given in full): the TGI is 58.8 µM in the experiment on SK-MEL-28 melanoma; 62.4 µM with A549 NSCLC; greater than 100 µM in the experiment on EKVX NSCLC; greater than 100 µM in the experiment with OVCAR-5 ovarian; greater than 100 µM in the experiment with RPMI-8226 leukemia; 30.2 µM in the experiment with HL-60(TB) leukemia.

Regarding `COc1ccc(/C=C2\Cc3ccccc3C2=O)cc1OC`, the TGI in the experiment with SK-MEL-28 melanoma, in the experiment on HOP-62 NSCLC, in the experiment with A549 NSCLC, with EKVX NSCLC, in the experiment with OVCAR-5 ovarian and in the experiment on RPMI-8226 leukemia was greater than 100 µM throughout.

In the case of `CC(C)[C@@H]1C=C(c2ccccc2)c2ccccc2C1C(C#N)(C#N)C(C)C` (stereo not given in full), the TGI with SK-MEL-28 melanoma, with HOP-62 NSCLC, in the experiment on A549 NSCLC, in the experiment with EKVX NSCLC, with OVCAR-5 ovarian and with RPMI-8226 leukemia was greater than 100 µM throughout. Also, in the experiment on HL-60(TB) leukemia, the TGI is greater than 100 µM.

Consider `N/C(=N\NS(=O)(=O)c1ccccc1)Oc1ccc(Cl)cc1`, for which the TGI in the experiment with SK-MEL-28 melanoma, in the experiment with HOP-62 NSCLC, in the experiment with A549 NSCLC, with EKVX NSCLC, in the experiment with OVCAR-5 ovarian and in the experiment with RPMI-8226 leukemia was greater than 100 µM in each case. For the same molecule, the TGI in the experiment with HL-60(TB) leukemia was found to be 60.6 µM.

With `COc1ccc2cccc(C(=O)c3ccc(C)c4c3CCC4)c2c1`, the TGI in the experiment on SK-MEL-28 melanoma is greater than 100 µM; with HOP-62 NSCLC it was 69.3 µM; in the experiment with A549 NSCLC it was greater than 100 µM; with EKVX NSCLC it was greater than 100 µM; in the experiment with OVCAR-5 ovarian it was greater than 100 µM; in the experiment with HL-60(TB) leukemia, 44.7 µM.

Regarding `Cn1c2c([N+](=O)[O-])[se]nc2c(=O)n1-c1ccc([N+](=O)[O-])cc1`, the TGI stood at 4.39 µM in the experiment on SK-MEL-28 melanoma; 14.2 µM in the experiment with HOP-62 NSCLC; 20.6 µM in the experiment with A549 NSCLC; 5.23 µM with EKVX NSCLC; 4.44 µM with OVCAR-5 ovarian; 5.51 µM in the experiment with RPMI-8226 leukemia. The molecule also showed a TGI in the experiment with HL-60(TB) leukemia greater than 23.1 µM.

In the case of `CCCCCCCCCCCC(=O)OCC1OC(n2cc(F)c(=O)[nH]c2=O)C(NC(=O)OCc2ccccc2)C(O)C1O` (stereo not given), the TGI in the experiment with SK-MEL-28 melanoma was 35.4 µM; in the experiment with HOP-62 NSCLC, greater than 100 µM; in the experiment with A549 NSCLC, 43.2 µM; in the experiment on EKVX NSCLC it was 79.9 µM; in the experiment with RPMI-8226 leukemia, 53.5 µM; in the experiment with HL-60(TB) leukemia it was 49.7 µM.

`COC(=O)C[CH](C(=O)OC)[Ge]([CH3])([CH3])[S]c1ccccc1` (stereo not given): the GI50 in the experiment with SK-MEL-28 melanoma is 23.3 µM; in the experiment with HOP-62 NSCLC, 22.4 µM; in the experiment on A549 NSCLC, 43.9 µM; with EKVX NSCLC, 16.1 µM; with OVCAR-5 ovarian, 18.7 µM; in the experiment with RPMI-8226 leukemia it was 17.1 µM. Besides, the GI50 with HL-60(TB) leukemia is 3 µM. In addition, the TGI in the experiment with SK-MEL-28 melanoma was 65.7 µM; with HOP-62 NSCLC, 50.5 µM; with A549 NSCLC, greater than 100 µM; with EKVX NSCLC, 75.2 µM; in the experiment on OVCAR-5 ovarian, 42.6 µM; with RPMI-8226 leukemia, 56.7 µM. In the experiment on HL-60(TB) leukemia, this molecule had a TGI of 17.5 µM.

As to `S=c1nc(-c2ccccc2)oc(=NC2CCCCC2)n1C1CCCCC1`, the GI50 in the experiment with SK-MEL-28 melanoma is 14.3 µM; in the experiment on HOP-62 NSCLC, 5.9 µM; in the experiment on A549 NSCLC, 2.26 µM; with EKVX NSCLC, 2.14 µM; in the experiment with OVCAR-5 ovarian, 8.54 µM; with RPMI-8226 leukemia, 2.69 µM. The GI50 is 3.3 µM in the experiment on HS 578T breast, 3.36 µM in the experiment with MDA-MB-435 and 1.9 µM with HL-60(TB) leukemia. Further, the TGI in the experiment on SK-MEL-28 melanoma is 30.2 µM; in the experiment with HOP-62 NSCLC, 23.1 µM; with A549 NSCLC it was 8.21 µM; in the experiment with EKVX NSCLC it was 12 µM; in the experiment on OVCAR-5 ovarian it was 30.3 µM; in the experiment on RPMI-8226 leukemia it was 6.51 µM. The TGI in the experiment with HS 578T breast worked out at 14.5 µM; in the experiment with MDA-MB-435, 8.82 µM; in the experiment on HL-60(TB) leukemia, 5.29 µM.

For the molecule `COC(=O)C(=O)C1(CCC(C)=O)c2ccccc2-c2ccccc21`, the TGI in the experiment with SK-MEL-28 melanoma, in the experiment with HOP-62 NSCLC, in the experiment with A549 NSCLC, with EKVX NSCLC, in the experiment on OVCAR-5 ovarian and in the experiment with RPMI-8226 leukemia was greater than 100 µM throughout. In the experiment on HL-60(TB) leukemia, this molecule registered a TGI greater than 100 µM.

As for `Cc1cccc(NC(=O)C(=O)C2C(=O)NC(=O)NC2=O)c1C`, the TGI in the experiment on SK-MEL-28 melanoma, in the experiment on HOP-62 NSCLC, in the experiment on A549 NSCLC, in the experiment on EKVX NSCLC, in the experiment with OVCAR-5 ovarian and with RPMI-8226 leukemia was greater than 100 µM throughout. The same molecule registered a TGI in the experiment on HL-60(TB) leukemia greater than 100 µM.

As to `Oc1ccc2oc3ncc(Cl)c(-c4ccccc4)c3c2c1`, the GI50 in the experiment on SK-MEL-28 melanoma, in the experiment with A549 NSCLC, in the experiment on EKVX NSCLC, in the experiment on OVCAR-5 ovarian, in the experiment with RPMI-8226 leukemia and in the experiment on HS 578T breast was greater than 100 µM throughout. The GI50 with MDA-MB-435 and in the experiment with HL-60(TB) leukemia was greater than 100 µM throughout. Further, the TGI with SK-MEL-28 melanoma, in the experiment on A549 NSCLC, in the experiment on EKVX NSCLC, with OVCAR-5 ovarian, in the experiment with RPMI-8226 leukemia and in the experiment on HS 578T breast was greater than 100 µM each time. The TGI with MDA-MB-435 and with HL-60(TB) leukemia was greater than 100 µM each time.

Regarding `Nc1nc2c(ncn2C2OC(CO)C(O)C2N)c(=O)[nH]1` (stereo not given), the TGI with SK-MEL-28 melanoma, in the experiment on HOP-62 NSCLC, with A549 NSCLC, with OVCAR-5 ovarian and with HL-60(TB) leukemia was greater than 100 µM in each case.
